Our source for the GI50 and TGI values is PubChem BioAssay (NCI).

Each structure is given as a SMILES string.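 Where inhibition never reached the appropriate level, the endpoint shown equals the highest concentration tested. Otherwise, values were interpolated linearly from a five-concentration, 48-hour dose response in 96-well plates. GI50: concentration for 50% inhibition of growth. TGI marks complete inhibition of growth.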

Assay in all cases: growth of human tumour cells (NCI), 48 h
Assay [1] has as its system 786-0 renal.
For assay [2], the system named is CAKI-1 renal.
For assay [3], the system named is COLO 205 colon.
Assay [4] has as its system HCC-2998 colon.
Assay [5] concerns IGROV1 ovarian.
In assay [6] the test system is PC-3 prostate.
Assay [7] has as its system RPMI-8226 leukemia.
The test system of assay [8] is RXF 393 renal.
Assay [9] deals with SK-MEL-2 melanoma.
Assay [10] deals with T-47D breast.

Take `COc1ccc(/C(C)=C(\c2ccc(Cl)cc2)c2ccc(OCCN3CCCCCC3)cc2)cc1F`: the GI50 in assay [1] was 2560 nM; in assay [2] it was 3.37 µM; in assay [3], 1620 nM; in assay [4], 3.81 µM; in [5] it was 3.07 µM; in [6] it was 3.8 µM. For the same compound, the GI50 was 3.63 µM in [7], 2550 nM in assay [8], 5.23 µM in assay [9] and 3.47 µM in assay [10]. Further, the TGI in assay [1] worked out at 5.11 µM; in assay [2], 7.7 µM; in assay [3] it was 7.47 µM; in assay [4], 9.38 µM; in assay [5], 9.34 µM; in assay [6], 15 µM. Besides, the TGI in assay [7] turned out to be 9.92 µM; in assay [8] it was 5.17 µM; in assay [9] it was 16.3 µM; in [10], 15.1 µM.
